Results reported in patent publication US20210403858A1, “Bacillus strain and microbial preparation of bacillus and method of using microbial preparation” (ROLLING GREENS CO., LTD., priority 2020, published 2021).

Assays:
[1] = system: lettuce; assay: IAA sensitivity test on lettuce; type: in vivo
Method: disinfecting seeds of the lettuce with 5% sodium hypochlorite and putting the seeds of the lettuce in another sterilized Petri dish in which a filter paper is disposed; adding 3 mL of 0.03 μM, 3 μM, 30 μM, and 300 μM of IAA aqueous solutions respectively; moving another sterilized Petri dish into another plant growth box for 3 days; and measuring a germination rate and a height of each lettuce and a length of a root of each lettuce.

[2] = system: rice seedlings; assay: IAA sensitivity test on rice seedlings; type: in vivo; details: 4 days
Method: Taking rice and lettuce for example, IAA sensitivity of the microbial preparation is tested in steps of: disinfecting and germinating rice seedlings; putting the rice seedlings in a sterilized Petri dish in which a filter paper is disposed; […]; moving the sterilized Petri dish into a plant growth box for 4 days; measuring an average height of buds of the rice seedlings and an average height of roots of the rice seedlings;

O=C(O)Cc1c[nH]c2ccccc12 [IAA]
height of lettuce sprouts ([1]; IAA 0.03 μM, 3 days (no IAA: 5.3 mm)): 3.5 mm
length of lettuce roots ([1]; IAA 0.03 μM, 3 days (no IAA: 14.8 mm)): 8.8 mm
germination rate of the seeds of the lettuce ([1]; IAA 300 μM, 3 days (no IAA: 78%)): 13%
growth of the roots of the rice seedlings ([2]; IAA 0.03 μM to 30 μM, FIG. 1): does not promote a growth of the roots
growth of the roots of the rice seedlings ([2]; IAA 300 μM): limited
